Source: BindingDB's records for doi:10.1016/s0960-894x(01)00758-2 (University of St. Andrews, 2002)

Assay: Tested for binding affinity against kynureninase enzyme from bacterial cells

Compound: NC(CC(O)c1cccc(O)c1)C(=O)O (stereo unspecified) [2-amino-4-[3'-hydroxyphenyl]-4-hydroxybutanoic acid]
- Ki: 10 µM
